Measurements: patent US20240269139A1, “COMPOUNDS FOR TARGETED PROTEIN DEGRADATION OF KINASES” (DANA-FARBER CANCER INSTITUTE, INC., priority 2020, published 2024)
Read-outs that look alike come from different tables or passages of the source.

How the values were obtained:
Assay type in all cases: cell-based
[1] = target: T1, protein kinases (human kinome) (Homo sapiens, UniProt O14976)
T1 sequence (O14976 1-1311): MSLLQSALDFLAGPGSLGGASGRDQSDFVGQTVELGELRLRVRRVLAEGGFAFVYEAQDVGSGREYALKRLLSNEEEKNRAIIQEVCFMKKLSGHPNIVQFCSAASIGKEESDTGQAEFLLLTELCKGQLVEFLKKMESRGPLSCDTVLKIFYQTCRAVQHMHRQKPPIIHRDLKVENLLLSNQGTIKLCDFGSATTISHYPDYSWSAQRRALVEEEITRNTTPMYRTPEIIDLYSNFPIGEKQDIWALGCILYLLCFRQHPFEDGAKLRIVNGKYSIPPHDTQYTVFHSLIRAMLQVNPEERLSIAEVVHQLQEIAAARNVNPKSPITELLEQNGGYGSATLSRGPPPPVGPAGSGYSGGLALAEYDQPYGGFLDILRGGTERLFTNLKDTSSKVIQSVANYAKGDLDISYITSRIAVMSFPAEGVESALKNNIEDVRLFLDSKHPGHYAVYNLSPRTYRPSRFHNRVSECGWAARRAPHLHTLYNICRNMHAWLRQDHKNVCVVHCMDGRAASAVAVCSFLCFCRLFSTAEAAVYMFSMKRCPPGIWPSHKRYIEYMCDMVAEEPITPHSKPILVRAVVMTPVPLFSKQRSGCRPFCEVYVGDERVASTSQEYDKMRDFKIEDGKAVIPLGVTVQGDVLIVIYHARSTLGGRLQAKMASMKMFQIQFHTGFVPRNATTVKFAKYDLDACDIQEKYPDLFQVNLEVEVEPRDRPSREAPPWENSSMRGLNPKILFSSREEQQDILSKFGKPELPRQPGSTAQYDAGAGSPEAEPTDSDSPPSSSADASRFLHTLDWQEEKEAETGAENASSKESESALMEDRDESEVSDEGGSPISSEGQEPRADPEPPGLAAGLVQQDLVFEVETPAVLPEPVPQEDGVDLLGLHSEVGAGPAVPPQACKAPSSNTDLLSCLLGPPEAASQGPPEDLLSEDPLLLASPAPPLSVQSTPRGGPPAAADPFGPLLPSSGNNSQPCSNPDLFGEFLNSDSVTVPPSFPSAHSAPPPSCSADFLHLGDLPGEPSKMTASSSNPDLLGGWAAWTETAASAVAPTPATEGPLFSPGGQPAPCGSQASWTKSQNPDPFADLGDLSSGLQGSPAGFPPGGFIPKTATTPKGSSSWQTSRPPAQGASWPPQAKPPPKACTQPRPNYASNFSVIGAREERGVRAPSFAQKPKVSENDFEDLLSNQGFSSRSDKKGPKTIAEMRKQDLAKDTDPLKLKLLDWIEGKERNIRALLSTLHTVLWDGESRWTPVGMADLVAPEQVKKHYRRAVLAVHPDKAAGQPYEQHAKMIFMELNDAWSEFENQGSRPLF

[2] = target: protein kinases (human kinome) (Homo sapiens, UniProt P16591); conditions: for logFC of FER (P16591-1): down; for logFC of FER: FER P16591-1
Sequence of protein kinases (human kinome) (Homo sapiens, UniProt P16591) (P16591 whole entry): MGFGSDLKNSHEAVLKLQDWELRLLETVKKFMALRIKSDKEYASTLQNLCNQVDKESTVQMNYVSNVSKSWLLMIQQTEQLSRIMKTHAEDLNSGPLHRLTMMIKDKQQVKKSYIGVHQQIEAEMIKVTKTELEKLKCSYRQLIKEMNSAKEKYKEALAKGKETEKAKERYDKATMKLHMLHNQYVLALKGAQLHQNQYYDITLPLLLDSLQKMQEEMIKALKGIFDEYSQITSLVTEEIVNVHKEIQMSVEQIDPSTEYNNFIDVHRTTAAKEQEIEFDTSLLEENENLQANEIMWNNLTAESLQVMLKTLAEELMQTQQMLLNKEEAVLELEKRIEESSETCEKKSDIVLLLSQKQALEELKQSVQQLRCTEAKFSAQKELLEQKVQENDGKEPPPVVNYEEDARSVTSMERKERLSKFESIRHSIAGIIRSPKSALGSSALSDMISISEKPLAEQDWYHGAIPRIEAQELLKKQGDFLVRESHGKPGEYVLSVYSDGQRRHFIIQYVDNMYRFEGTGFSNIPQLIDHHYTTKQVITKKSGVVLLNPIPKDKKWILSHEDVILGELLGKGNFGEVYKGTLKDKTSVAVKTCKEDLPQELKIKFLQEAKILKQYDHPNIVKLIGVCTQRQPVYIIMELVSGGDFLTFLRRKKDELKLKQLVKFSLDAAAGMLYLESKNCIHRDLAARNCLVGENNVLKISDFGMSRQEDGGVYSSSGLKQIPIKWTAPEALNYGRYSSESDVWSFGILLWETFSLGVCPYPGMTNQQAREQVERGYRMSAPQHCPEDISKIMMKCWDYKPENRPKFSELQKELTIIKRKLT

[3] = target: T2, protein kinases (human kinome) (Homo sapiens, UniProt O14965)
T2 sequence (O14965 1-403): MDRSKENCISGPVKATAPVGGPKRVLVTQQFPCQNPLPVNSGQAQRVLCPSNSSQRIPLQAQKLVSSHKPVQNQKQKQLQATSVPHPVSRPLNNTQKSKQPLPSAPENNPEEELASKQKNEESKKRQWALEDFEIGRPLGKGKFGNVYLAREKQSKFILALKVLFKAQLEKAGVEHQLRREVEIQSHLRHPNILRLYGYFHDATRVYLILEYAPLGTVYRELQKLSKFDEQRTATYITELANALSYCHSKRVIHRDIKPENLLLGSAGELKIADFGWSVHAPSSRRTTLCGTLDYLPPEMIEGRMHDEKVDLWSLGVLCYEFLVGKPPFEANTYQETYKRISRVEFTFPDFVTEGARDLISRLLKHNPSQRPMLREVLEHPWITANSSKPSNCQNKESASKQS

[4] = target: protein kinases (human kinome) (Homo sapiens, UniProt P30291); conditions: for logFC of WEE1: WEE1 P30291-1
Sequence of protein kinases (human kinome) (Homo sapiens, UniProt P30291) (P30291 whole entry): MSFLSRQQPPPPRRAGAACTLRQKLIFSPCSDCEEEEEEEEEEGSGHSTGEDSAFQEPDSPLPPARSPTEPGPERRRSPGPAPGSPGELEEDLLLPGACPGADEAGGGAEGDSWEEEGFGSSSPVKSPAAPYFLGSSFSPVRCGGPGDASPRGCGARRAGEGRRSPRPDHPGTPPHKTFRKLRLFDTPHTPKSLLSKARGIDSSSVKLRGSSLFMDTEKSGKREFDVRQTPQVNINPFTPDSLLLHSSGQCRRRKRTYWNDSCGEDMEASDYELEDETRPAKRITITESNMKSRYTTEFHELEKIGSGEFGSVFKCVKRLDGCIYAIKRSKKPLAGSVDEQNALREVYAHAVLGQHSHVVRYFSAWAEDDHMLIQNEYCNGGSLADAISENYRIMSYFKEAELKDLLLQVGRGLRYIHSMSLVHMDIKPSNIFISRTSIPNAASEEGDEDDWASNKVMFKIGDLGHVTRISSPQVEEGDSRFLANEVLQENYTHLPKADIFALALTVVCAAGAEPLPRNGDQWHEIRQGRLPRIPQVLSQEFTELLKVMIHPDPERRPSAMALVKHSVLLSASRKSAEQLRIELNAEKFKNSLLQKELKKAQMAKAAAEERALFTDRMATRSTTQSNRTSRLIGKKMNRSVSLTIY

[5] = target: protein kinases (human kinome) (Homo sapiens, UniProt Q2M2I8)
Sequence of protein kinases (human kinome) (Homo sapiens, UniProt Q2M2I8) (Q2M2I8 whole entry): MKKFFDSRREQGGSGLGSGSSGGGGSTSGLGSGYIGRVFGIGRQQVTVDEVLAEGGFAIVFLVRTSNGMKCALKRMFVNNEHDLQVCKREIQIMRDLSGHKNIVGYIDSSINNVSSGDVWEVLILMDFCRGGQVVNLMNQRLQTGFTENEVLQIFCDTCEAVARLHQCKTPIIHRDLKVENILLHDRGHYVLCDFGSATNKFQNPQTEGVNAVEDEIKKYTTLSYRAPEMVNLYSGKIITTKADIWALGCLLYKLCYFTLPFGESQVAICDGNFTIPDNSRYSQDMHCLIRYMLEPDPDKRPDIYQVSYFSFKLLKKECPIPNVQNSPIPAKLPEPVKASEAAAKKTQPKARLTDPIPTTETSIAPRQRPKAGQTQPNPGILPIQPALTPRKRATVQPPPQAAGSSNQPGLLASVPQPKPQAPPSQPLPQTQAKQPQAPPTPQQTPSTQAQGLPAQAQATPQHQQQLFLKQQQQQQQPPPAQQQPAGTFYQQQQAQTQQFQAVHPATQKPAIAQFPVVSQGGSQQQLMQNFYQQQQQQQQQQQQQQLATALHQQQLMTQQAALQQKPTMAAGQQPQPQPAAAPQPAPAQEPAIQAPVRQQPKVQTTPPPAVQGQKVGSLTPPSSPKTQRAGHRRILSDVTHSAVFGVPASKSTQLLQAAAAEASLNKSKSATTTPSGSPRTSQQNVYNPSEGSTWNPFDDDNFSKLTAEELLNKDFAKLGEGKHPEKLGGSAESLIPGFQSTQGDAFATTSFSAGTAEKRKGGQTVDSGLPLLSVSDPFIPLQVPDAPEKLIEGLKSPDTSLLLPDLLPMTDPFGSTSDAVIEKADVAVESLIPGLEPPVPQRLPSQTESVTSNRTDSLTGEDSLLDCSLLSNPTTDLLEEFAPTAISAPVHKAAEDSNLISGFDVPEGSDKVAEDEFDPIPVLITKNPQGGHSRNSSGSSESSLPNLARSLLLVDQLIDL

[6] = GAK (O14976), experiment wp168, down
[7] = GAK (O14976), experiment wp195, down
[8] = GAK, accession O14976, experiment wp195, direction of change down
[9] = AAK1 (Q2M218-1), experiment wp195, down
[10] = AAK1, accession Q2M218-1, experiment wp195, direction of change down

Cc1ccc(NC(=O)c2cccc(C(F)(F)F)c2)cc1N1Cc2cnc(Nc3ccc(N4CCN(CCCOc5cccc6c5C(=O)N(C5CCC(=O)NC5=O)C6=O)CC4)nc3)nc2N(C)C1=O (stereo not shown) [DB0662]
logFC GAK ([1]; GAK (O14976), direction down, experiment wp168): −0.4373
logFC GAK [1, 6]: −0.4373
logFC of FER (P16591-1) ([2]; Experiment wp168): −1.481
logFC of FER ([2]; experiment wp168): −1.481

Nc1ncnc2c1c(-c1ccc(Oc3ccccc3)cc1)nn2[C@H]1CC[C@H](N2CCN(CCOCCNC(=O)CNc3cccc4c3C(=O)N(C3CCC(=O)NC3=O)C4=O)CC2)CC1 (stereo partly shown) [SB1.G.181]
logFC AURKA (O14965) ([3]; experiment wp071): −0.3684

Cc1cnc(Nc2ccc(N3CCN(CCCCCCC(=O)N[C@H](C(=O)N4C[C@H](O)C[C@H]4C(=O)N[C@@H](C)c4ccc(-c5scnc5C)cc4)C(C)(C)C)CC3)cc2)nc1Nc1cccc(S(=O)(=O)NC(C)(C)C)c1 [JWG.123]
logFC GAK [1, 7]: −0.5246
logFC GAK [1, 8]: −0.5246
logFC of WEE1 ([4]; experiment wp195): −1.368
logFC of WEE1 (P30291-1) ([4]; experiment wp195, direction of change down): −1.368
logFC AAK1 [5, 9]: −1.091
logFC AAK1 [5, 10]: −1.091

CC(C)(C)c1nc(-c2cccc(NS(=O)(=O)c3c(F)cccc3F)c2F)c(-c2ccnc(NCCOCCNC(=O)CCOCCOCCNc3cccc4c3C(=O)N(C3CCC(=O)NC3=O)C4=O)n2)s1 (stereo not shown) [DD.03.106]
logFC AURKA (O14965) ([3]; experiment wp147, 4 uM): −0.3302

Cc1ccc(C(=O)Nc2ccc(CN3CCN(CCOCCOCCNC(=O)CNc4cccc5c4C(=O)N(C4CCC(=O)NC4=O)C5=O)CC3)c(C(F)(F)F)c2)cc1C#Cc1cnc2cccnn12 (stereo not shown) [TL13.150]
logFC of GAK (O14976) ([1]; Experiment wp081, down): −1.014
logFC GAK ([1]; GAK (O14976), direction down, experiment wp081): −1.014
logFC of FER (P16591-1) ([2]; Experiment wp081): −1.511
logFC of FER ([2]; experiment wp081): −1.511

Cc1ncsc1-c1ccc([C@H](C)NC(=O)[C@@H]2C[C@@H](O)CN2C(=O)[C@@H](NC(=O)CCCCCN2CCc3cc(Nc4ncc(C5CC5)c(NCCCNC(=O)C5CCC5)n4)ccc3C2)C(C)(C)C)cc1 [BSJ.05.026]
logFC GAK [1, 7]: −0.5819
logFC GAK [1, 8]: −0.6819
logFC WEE1 (P30291-1) ([4]; Experiment wp195): −0.8876
logFC of WEE1 ([4]; experiment wp196): −0.8876
logFC AAK1 [5, 9]: −3.073
logFC AAK1 [5, 10]: −3.073

Cc1ncsc1-c1ccc([C@H](C)NC(=O)[C@@H]2C[C@@H](O)CN2C(=O)[C@@H](NC(=O)CCCCCN2CCN(c3ccc(Nc4ncc5scc(-c6cccc(NS(C)(=O)=O)c6)c5n4)cc3)CC2)C(C)(C)C)cc1 [RSS0680, (2S,4R)-1-((S)-3,3-Dimethyl-2-(6-(4-(4-((7-(3-(methylsulfonamido)phenyl)thieno[3,2-d]pyrimidin-2-yl)amino)phenyl)piperazin-1-yl)hexanamido)butanoyl)-4-hydroxy-N—((S)-1-(4-(4-methylthiazol-5yl)phenyl)ethyl)pyrrolidine-2-carboxamide]
logFC of GAK (O14976) ([1]; Experiment wp080, down): −0.7773
logFC of GAK (O14976) ([1]; Experiment wp117, down): −0.6853
logFC GAK ([1]; GAK (O14976), direction down, experiment wp080): −0.7773
logFC GAK ([1]; GAK (O14976), direction down, experiment wp117): −0.6853
logFC of WEE1 ([4]; experiment wp080): −2.359
logFC of WEE1 ([4]; experiment wp117): −1.85
logFC WEE1 (P30291-1) ([4]; experiment wp080): −2.359
logFC WEE1 (P30291-1) ([4]; experiment wp117): −1.85
logFC AAK1 ([5]; AAK1 (Q2M218-1), experiment wp080, down): −1.392
logFC AAK1 ([5]; AAK1 (Q2M218-1), experiment wp117, down): −1.05
logFC AAK1 ([5]; AAK1, accession Q2M218-1, experiment wp080, direction of change down): −1.392
logFC AAK1 ([5]; AAK1, accession Q2M218-1, experiment wp117, direction of change down): −1.05

Cc1ccc(C(=O)Nc2ccc(CN3CCN(CCCOCCOCCOCCNC(=O)COc4cccc5c4C(=O)N(C4CCC(=O)NC4=O)C5=O)CC3)c(C(F)(F)F)c2)cc1C#Cc1cnc2cccnn12 (stereo not shown) [SB1.G.187]
logFC of GAK (O14976) ([1]; Experiment wp056, down): −1.543
logFC of GAK (O14976) ([1]; Experiment wp103, down): −1.478
logFC of GAK (O14976) ([1]; Experiment wp105, down): −1.088
logFC of GAK (O14976) ([1]; Experiment wp107, down): −1.768
logFC of GAK (O14976) ([1]; Experiment wp114, down): −0.3578
logFC GAK ([1]; GAK (O14976), direction down, experiment wp056): −1.543
logFC GAK ([1]; GAK (O14976), direction down, experiment wp103): −1.478
logFC GAK ([1]; GAK (O14976), direction down, experiment wp105): −1.088
logFC GAK ([1]; GAK (O14976), direction down, experiment wp107): −1.768
logFC GAK ([1]; GAK (O14976), direction down, experiment wp114): −0.3578
logFC GAK ([1]; GAK (O14976), experiment wp172, down): −1.007
logFC GAK ([1]; GAK, accession O14976, experiment wp172, direction of change down): −1.007
logFC of FER (P16591-1) ([2]; Experiment wp056): −1.267
logFC of FER (P16591-1) ([2]; Experiment wp103): −1.672
logFC of FER (P16591-1) ([2]; Experiment wp105): −1.432
logFC of FER (P16591-1) ([2]; Experiment wp107): −1.76
logFC of FER ([2]; experiment wp056): −1.267
logFC of FER ([2]; experiment wp103): −1.672
logFC of FER ([2]; experiment wp105): −1.432
logFC of FER ([2]; experiment wp107): −1.76

CC(=O)c1c(C)c2cnc(Nc3ccc(N4CCN(CCOCCOCCOCCNC(=O)COc5cccc6c5C(=O)N(C5CCC(=O)NC5=O)C6=O)CC4)cn3)nc2n(C2CCCC2)c1=O (stereo not shown) [BSJ.03.123]
logFC of WEE1 ([4]; experiment wp084): −0.3883
logFC WEE1 (P30291-1) ([4]; experiment wp084): −0.3883

C=CCn1c(=O)c2cnc(Nc3ccc(N4CCN(CCCNc5cccc6c5C(=O)N(C5CCC(=O)NC5=O)C6=O)CC4)cc3)nc2n1-c1cccc(C(C)(C)O)n1 (stereo not shown) [ZNL.02.096]
logFC of WEE1 ([4]; experiment wp081): −1.97
logFC of WEE1 ([4]; experiment wp106, 2 hr): −2.525
logFC of WEE1 ([4]; experiment wp106, 4 hr): −2.764
logFC of WEE1 ([4]; experiment wp118): −2.75
logFC WEE1 (P30291-1) ([4]; experiment wp056): −2.409
logFC WEE1 (P30291-1) ([4]; experiment wp081): −1.97
logFC WEE1 (P30291-1) ([4]; experiment wp106, 2 hr): −2.525
logFC WEE1 (P30291-1) ([4]; experiment wp106, 4 hr): −2.764
logFC WEE1 (P30291-1) ([4]; experiment wp118): −2.75

Cc1ccc(NC(=O)c2cccc(C(F)(F)F)c2)cc1N1Cc2cnc(Nc3ccc(N4CCN(CCCCCCOc5cccc6c5C(=O)N(C5CCC(=O)NC5=O)C6=O)CC4)nc3)nc2N(C)C1=O (stereo not shown) [DB0663]
logFC of GAK (O14976) ([1]; Experiment wp045, down): −0.691
logFC GAK ([1]; GAK (O14976), direction down, experiment wp045): −0.691
logFC of FER (P16591-1) ([2]; Experiment wp045): −0.9581
logFC of FER ([2]; experiment wp045): −0.9581

Cc1ccc(NC(=O)c2cccc(C(F)(F)F)c2)cc1N1Cc2cnc(Nc3ccc(N4CCN(CCCCC(=O)N[C@H](C(=O)N5C[C@H](O)C[C@H]5C(=O)N[C@@H](C)c5ccc(-c6scnc6C)cc5)C(C)(C)C)CC4)nc3)nc2N(C)C1=O [DB1113]
logFC GAK [1, 6]: −1.029
logFC GAK ([1]; GAK, accession O14976, experiment wp168, direction of change down): −1.029
logFC of FER (P16591-1) ([2]; Experiment wp168): −1.118
logFC of FER ([2]; experiment wp168): −1.118
